# Test results reported in publication PMC7217877, “N-AS-triggered SPMs are direct regulators of microglia in a model of Alzheimer’s disease” (Nature Communications, 2020).
# Several values for one entry are separate records, joined by “and”; a condition that tells them apart may be missing. Equal entries are not always repeated.
# Tests used:
# [1] = test system: APP/PS1 mice; test: ELISA of Aβ40 and Aβ42 in cortex (Fig 6e); type: in vivo, mouse; parameters: Ab 40 (ELISA, Figure 6e) / Ab 42 (ELISA, Figure 6e): unit not given beside the values
# Protocol: For measurement of Aβ40 and Aβ42, we used commercially available ELISA kits (Invitrogen, KHB3481, and KHB3441). Cortex of mice was homogenized in buffer containing […] guanidine. ELISA was then performed for Aβ40 and Aβ42 according to the manufacturer’s instructions.
# (§1) Transgenic mouse lines over-expressing the hAPP695swe (APP) and presenilin-1M146V (PS1) mutations were originated from GlaxoSmithKline (Harlow, UK)[32] and maintained as described previously. We purchased 5×FAD mice from Jackson Labs (Stock number. 34840-JAX). Because APP/PS1 and 5xFAD mice show sex differences in disease progression, we used only male mice. To examine possible therapeutic effect of N-AS and aspirin in APP/PS1 mice, the N-AS (30 mg kg^−1, Sigma-Aldrich, 01912) was injected daily s.c. for 8 weeks to 7-months-old APP/PS1 mice until the age of 9 months, and aspirin (2 mg kg^−1, Sigma-Aldrich, A5376)[33] was administrated orally to 7-months-old APP/PS1 mice for 8 weeks. Also, to confirm possible therapeutic efficacy of N-AS in 5×FAD, the N-AS (30 mg kg^−1, Sigma-Aldrich, 01912) was injected daily s.c. for 4 weeks to 3-months-old 5×FAD mice until the age of 4 months. Block randomization method was used to allocate the animals to experimental groups. To eliminate the bias, we were blinded in experimental progress such as data collection and data analysis. Mice were housed at temperature of 22 °C and a 12 h day/12 h night cycle with free access to tap water and food pellets. All protocols were approved by the Kyungpook National University Institutional Animal Care and Use Committee.
# [2] = test system: APP/PS1 mice; test: morphometric analysis of Aβ plaques by size (Supplementary Fig 5d); type: in vivo, mouse
# Protocol: (§2) Thioflavin S (Sigma-Aldrich) staining was carried out according to previously described procedures. We used 6E10 (mouse, 1:100, Signet, SIG39300), anti-20G10 (mouse, 1:1000, provided by D. R. Howlett, GlaxoSmithKline, Harlow, Essex, UK) for Aβ42, anti-G30 (rabbit, 1:1000, provided by D. R. Howlett) for Aβ40, SMA (mouse, 1:400, Sigma-Aldrich, A2547), AT8 (mouse, 1:500, Thermo Fisher Scientific, MN1020), Caspase-3 (mouse, 1:200, Novus Biologicals, NB100-56708), ac-S565 (rabbit, 1:100), COX2 (mouse, 1:250, Thermo Fisher Scientific, 35-8200), Iba1 (rabbit, 1:500, Wako, 019-19941 and goat, Abcam, ab5076), NeuN (mouse, 1:500, Millipore, MAB177), GFAP (rabbit, 1:500, Dako, N1506 and chicken, 1:500, Abcam, ab4674), and Lamp1 (mouse, 1:200, Abcam, ab24170). The sections were analyzed with a laser-scanning confocal microscope (FV3000; Olympus) or with a BX51 microscope (Olympus). MetaMorph software (Molecular Devices) was used to quantification. Three-dimensional reconstruction of microglia was recorded and analyzed using IMARIS software (Bitplane)[11]. For the analysis of age-dependent microglial COX2^+ CX3CR1^+ cells in WT and APP/PS1 mice, COX2 (rabbit, 1:100, Abcam, ab15191) and CX3CR1 (mouse, 1:100, BioLegend, 149008) antibody were used and the images were acquired on Alexa 488 and APC Channel with performed using Operetta CLS and Analysis Software 4.5 (Perkin-Elmer).
# as §1
# [3] = test system: 5×FAD mice; test: Iba1+ microglia and GFAP+ astrocyte quantification (Supplementary Fig 8d,e); type: in vivo, mouse
# Protocol: as §2, with “(Perkin-Elmer). […]” for “(Perkin-Elmer).”
# [4] = tissue concentrations at 24 h (brain, liver, kidney, heart; Supplementary Fig 3g); type: in vivo, C57BL/6 mice; parameters: Brain concentration (sFig 3g): unit not given here; conditions: for Heart concentration (sFig 3g) / Kidney concentration (sFig 3g) / Liver concentration (sFig 3g) / Brain concentration (sFig 3g): 24 h, individual animals
# Protocol: C57BL/6 mice were administered N-AS (Sigma-Aldrich, 01912) at doses of 1 mg kg^−1 (i.v.) or 10 mg kg^−1 (p.o.). Venous blood samples were collected at 5, 15, and 30 min, and 1, 2, 4, 8, and 24 h postdose. A 30 μl of plasma was separated from whole blood by centrifugation and stored at −80 °C until analysis. Also, brain samples were collected at 1, 2, 4, and 24 h postdose and heart, liver, and kidney samples were collected at 24 h postdose, thoroughly rinsed with physiological saline and weighed. Twenty percentage of tissue homogenates were prepared by homogenizing the tissue samples with four volumes of saline. A 30 μl aliquot of plasma or a 50 μl aliquot of tissue homogenates were deproteinized by addition of 200 μl cold methanol (containing naringenin as internal standard at 20 ng ml^−1) and centrifuged at 15,974×g for 10 min. A 10 μl aliquot of the supernatant was injected into Agilent 6470 LC-MS/MS system. Separation was performed on a Synergy Polar RP column (4 μm particle size, 2.0 mm ×150 mm, Phenomenex) using a mobile phase that consisted of methanol and water (85:15, v/v) with 0.1% formic acid at a flow rate of 0.2 ml min^−1. Quantification was carried out using multiple reaction monitoring (MRM) at m/z 340.3→263.3 for N-AS and m/z 271.1→151.3 for naringenin (internal standard) in negative ionization mode and collision energy of 20 eV. p, and relative oral BA values were calculated as follows: BA% = AUCp.o. normalized by p.o. dose/AUCi.v. normalized by i.v. dose × 100.
# [5] = APP/PS1 + N-AS, individual animals
# [6] = APP/PS1 + N-AS, individual values, sFig 5d, in % (unit assumed)
smiles,measurement,setting,value
"CCCCCCCCCCCCC/C=C/[C@@H](O)[C@H](CO)NC(C)=O [N-AS, N-((2S,3R,E)-1,3-Dihydroxyoctadec-4-en-2-yl)acetamide]","Ab 40 (ELISA, Figure 6e)",[1]; [5],1042.75 and 892.25 and 1044 and 676.5 and 692.5 and 668.75 and 689.75 and 1124
same,"Ab 42 (ELISA, Figure 6e)",[1]; [5],921.303 and 908.818 and 878.061 and 828.152 and 906.333 and 894.303 and 859.97 and 905.879
same,Aβ levels by ELISA of Aβ40 and Aβ42,[1]; N-AS vs vehicle APP/PS1,significantly lower Aβ levels
same,"Aβ plaques by size, 25-50mM",[2]; [6],2.008 and 5.136 and 3.485 and 2.167 and 5.808 and 4.496 and 5.407 and 0.9834 and 1.041
same,"Aβ plaques by size, <25mM",[2]; [6],96.4567 and 90.0482 and 94.697 and 95.0162 and 89.7245 and 91.9498 and 90.3491 and 98.0585 and 97.8053
same,"Aβ plaques by size, >50mM",[2]; [6],1.535 and 4.815 and 1.818 and 2.8169 and 4.468 and 3.555 and 4.244 and 0.9581 and 1.154
same,medium (25–50 μm) and large-sized (>50 μm) plaques,[2]; N-AS vs vehicle APP/PS1,significant reduction of medium (25–50 μm) and large-sized (>50 μm) plaques
same,number of small (<25 μm) plaques,[2]; N-AS vs vehicle APP/PS1,significantly increased number of small (<25 μm) plaques
same,GFAP+ astrocyte,"[3]; 5xFAD+N-AS, sFig 8e (sheet untitled)",1.617 and 1.112 and 1.516 and 1.497 and 1.364 and 1.314
same,neuroinflammation,"[3]; 5×FAD, N-AS 30 mg kg^-1 daily s.c. 4 weeks",similarly improved AD pathology of 5×FAD mice
same,"tissue concentration of N-AS at 24 hours post administration, in words","[4]; brain vs liver, kidney, heart, i.v. 1 mg/kg or p.o. 10 mg/kg",brain showed the highest concentration of N-AS
same,Heart concentration (sFig 3g),[4]; i.v 1mg/kg,0
same,Kidney concentration (sFig 3g),[4]; i.v 1mg/kg,0
same,Liver concentration (sFig 3g),[4]; i.v 1mg/kg,0
same,Brain concentration (sFig 3g),"[4]; i.v 1mg/kg, 1 mg/kg",13.15 and 12.57 and 8.38 and 7.48
same,Heart concentration (sFig 3g),[4]; p.o. 10mg/kg,0
same,Kidney concentration (sFig 3g),[4]; p.o. 10mg/kg,0
same,Liver concentration (sFig 3g),[4]; p.o. 10mg/kg,0
same,Brain concentration (sFig 3g),"[4]; p.o. 10mg/kg, 10 mg/kg",20.2 and 32.76 and 11.3 and 29.06
